Experimental data from patent US6579881B2 (Eisai Co., Ltd., priority 1997, dated 2003).

Assays:
serotonin 1A receptor = target: T1, serotonin 1A receptor (Rattus norvegicus, UniProt P19327); test: Binding test on [3H] 8-hydroxy-dipropylaminotetralin (serotonin 1A receptor); conditions: [3H] 8-OH-DPAT 0.5 nM, receptor fraction of rat hippocampus; read-out: 5HT1a
T1 construct: To the receptor fraction of the hippocampus were added a test compound and 0.5 nM of [^3H]; 8-hydroxy-dipropylaminotetralin; from tissue; host or cells: SD rat hippocampus, membrane (receptor) fraction
T1 sequence (P19327 1-422): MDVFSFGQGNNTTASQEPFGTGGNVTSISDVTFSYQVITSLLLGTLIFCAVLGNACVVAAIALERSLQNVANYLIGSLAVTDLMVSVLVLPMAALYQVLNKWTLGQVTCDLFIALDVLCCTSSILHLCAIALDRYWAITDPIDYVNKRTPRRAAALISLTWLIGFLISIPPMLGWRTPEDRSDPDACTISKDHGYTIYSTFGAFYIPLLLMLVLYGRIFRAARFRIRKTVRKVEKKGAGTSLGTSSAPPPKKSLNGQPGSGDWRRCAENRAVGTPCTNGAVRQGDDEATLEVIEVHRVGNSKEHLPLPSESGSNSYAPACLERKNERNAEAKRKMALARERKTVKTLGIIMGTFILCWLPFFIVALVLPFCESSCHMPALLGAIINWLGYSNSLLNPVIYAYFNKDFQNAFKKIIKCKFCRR

serotonin 2 receptor = serotonin 2 receptor (Rattus norvegicus, UniProt P14842); test: Binding test on [3H] ketanserin (serotonin 2 receptor); conditions: [3H] ketanserin 0.3 nM, receptor fraction of rat cerebral cortex; read-out: 5HT2
serotonin 2 receptor, sequence (P14842 whole entry): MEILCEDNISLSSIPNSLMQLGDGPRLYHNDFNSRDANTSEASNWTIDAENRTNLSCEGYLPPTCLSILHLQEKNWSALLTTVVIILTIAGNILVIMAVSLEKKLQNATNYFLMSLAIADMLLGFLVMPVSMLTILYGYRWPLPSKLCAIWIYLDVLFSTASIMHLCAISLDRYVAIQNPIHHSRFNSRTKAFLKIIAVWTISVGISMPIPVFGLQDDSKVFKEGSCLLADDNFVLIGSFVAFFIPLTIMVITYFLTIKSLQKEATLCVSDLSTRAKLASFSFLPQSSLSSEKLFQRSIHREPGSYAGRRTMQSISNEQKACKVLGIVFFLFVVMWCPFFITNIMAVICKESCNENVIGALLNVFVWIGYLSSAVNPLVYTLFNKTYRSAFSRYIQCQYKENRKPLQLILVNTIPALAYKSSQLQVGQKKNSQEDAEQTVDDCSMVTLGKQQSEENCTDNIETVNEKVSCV

| Ki (serotonin 1A receptor) [nM] | Ki (serotonin 2 receptor) [nM] | SMILES |
| --- | --- | --- |
| 0.2 | 15.2 | CS(=O)(=O)Oc1ccc2c(c1)N(C1CCN(CCc3ccc(F)cc3)CC1)CC2 [Example 122, 1-[1-(4-fluorophenethyl)piperidin-4-yl]-6-methanesulfonyloxyindoline] |
| 251 | 2.7 | OCCOc1cccc2c1N(C1CCN(CCc3ccc(F)cc3)CC1)CC2 [Example 123, 1-[1-(4-fluorophenethyl)piperidin-4-yl]-7-hydroxyethoxyindoline] |
| 1.1 | 45.8 | N#Cc1ccc2c(c1)N(C1CCN(CCc3ccc(F)cc3)CC1)CC2 [Example 124, 1-[1-(4-fluorophenethyl)piperidin-4-yl]-6-cyanoindoline] |
| 0.21 | 5.08 | CC(=O)c1ccc2c(c1)N(C1CCN(CCc3ccc(F)cc3)CC1)CC2 [Example 127, 1-[1-(4-fluorophenethyl)piperidin-4-yl]-6-acetylindoline] |
| 0.34 | 4.7 | CS(=O)(=O)c1ccc2c(c1)N(C1CCN(CCc3ccc(F)cc3)CC1)CC2 [Example 128, 1-[1-(4-fluorophenethyl)piperidin-4-yl]-6-methanesulfonylindoline] |
| 0.95 | 0.65 | NC(=S)Cc1ccc2c(c1)N(C1CCN(CCc3ccc(F)cc3)CC1)CC2 [Example 129, 1-[1-(4-fluorophenethyl)piperidin-4-yl]-6-thiocarbamoylmethylindoline] |
| 0.49 | 9.12 | O=Cc1ccc2c(c1)N(C1CCN(CCc3ccc(F)cc3)CC1)CC2 [Example 130, 1-[1-(4-fluorophenethyl)piperidin-4-yl]-6-formylindoline] |
| 0.17 | 15.2 | O/N=C/c1ccc2c(c1)N(C1CCN(CCc3ccc(F)cc3)CC1)CC2 [Example 131, 1-[1-(4-fluorophenethyl)piperidin-4-yl]-6-hydroxyiminomethylindoline] |
| 2.08 | 14.3 | NCc1ccc2c(c1)N(C1CCN(CCc3ccc(F)cc3)CC1)CC2 [Example 132, 1-[1-(4-fluorophenethyl)piperidin-4-yl]-6-aminomethylindoline] |
| 3.4 | 6.2 | OCc1ccc2c(c1)N(C1CCN(CCc3ccc(F)cc3)CC1)CC2 [Example 136, 1-[1-(4-fluorophenethyl)piperidin-4-yl]-6-hydroxymethylindoline] |
| 1.98 | 5.93 | CCC(O)c1ccc2c(c1)N(C1CCN(CCc3ccc(F)cc3)CC1)CC2 (centres unmarked) [Example 138, 1-[1-(4-fluorophenethyl)piperidin-4-yl]-6-(1-hydroxypropyl)indoline] |
| 2.31 | 8.8 | CC(C)(O)c1ccc2c(c1)N(C1CCN(CCc3ccc(F)cc3)CC1)CC2 [Example 139, 1-[1-(4-fluorophenethyl)piperidin-4-yl]-6-(1-hydroxy-1-methylethyl)indoline] |
| 6.23 | 35.1 | OC1(c2ccc3c(c2)N(C2CCN(CCc4ccc(F)cc4)CC2)CC3)CCC1 [Example 140, 1-[1-(4-fluorophenethyl)piperidin-4-yl]-6-(1-hydroxycyclobutyl)indoline] |
| 1.86 | 3.36 | FCc1ccc2c(c1)N(C1CCN(CCc3ccc(F)cc3)CC1)CC2 [Example 143, 1-[1-(4-fluorophenethyl)piperidin-4-yl]-6-fluoromethylindoline] |
| 1.49 | 3.38 | CC(F)c1ccc2c(c1)N(C1CCN(CCc3ccc(F)cc3)CC1)CC2 (centres unmarked) [Example 144, 1-[1-(4-fluorophenethyl)piperidin-4-yl]-6-(1-fluoroethyl)indoline] |
| 8.07 | 48.8 | N#CCc1ccc2c(c1)N(C1CCN(CCc3ccc(F)cc3)CC1)CC2 [Example 145, 1-[1-(4-fluorophenethyl)piperidin-4-yl]-6-cyanomethylindoline] |

| Ki (serotonin 1A receptor) [nM] | Ki (serotonin 2 receptor) [nM] | SMILES |
| --- | --- | --- |
| 9.58 | 0.25 | CNC(=O)Cc1ccc2c(c1)N(C1CCN(CCc3ccc(F)cc3)CC1)CC2 [Example 148, 1-[1-(4-fluorophenethyl)piperidin-4-yl]-6-(methylcarbamoylmethyl)indoline] |
| 13 | 0.16 | CCCNC(=O)Cc1ccc2c(c1)N(C1CCN(CCc3ccc(F)cc3)CC1)CC2 [Example 150, 1-[1-(4-fluorophenethyl)piperidin-4-yl]-6-(n-propylcarbamoylmethyl)indoline] |
| 16.4 | 0.27 | CC(C)CNC(=O)Cc1ccc2c(c1)N(C1CCN(CCc3ccc(F)cc3)CC1)CC2 [Example 152, 1-[1-(4-fluorophenethyl)piperidin-4-yl]-6-(isobutylcarbamoylmethyl)indoline] |
| 15.5 | 4.24 | CC(C)(C)NC(=O)Cc1ccc2c(c1)N(C1CCN(CCc3ccc(F)cc3)CC1)CC2 [Example 153, 1-[1-(4-fluorophenethyl)piperidin-4-yl]-6-(t-butylcarbamoylmethyl)indoline] |
| 14.8 | 1.33 | O=C(Cc1ccc2c(c1)N(C1CCN(CCc3ccc(F)cc3)CC1)CC2)N1CCCC1 [Example 155, 1-[1-(4-fluorophenethyl)piperidin-4-yl]-6-(tetramethylenecarbamoylmethyl)indoline] |
| 7.8 | 2.6 | CCC(=O)NCc1ccc2c(c1)N(C1CCN(CCc3ccc(F)cc3)CC1)CC2 [Example 156, 1-[1-(4-fluorophenethyl)piperidin-4-yl]-6-propionylaminomethylindoline] |
| 4.11 | 0.18 | CCCC(=O)NCc1ccc2c(c1)N(C1CCN(CCc3ccc(F)cc3)CC1)CC2 [Example 157, 1-[1-(4-fluorophenethyl)piperidin-4-yl]-6-(n-butyryl)aminomethylindoline] |
| 8.18 | 0.16 | CC(C)C(=O)NCc1ccc2c(c1)N(C1CCN(CCc3ccc(F)cc3)CC1)CC2 [Example 158, 1-[1-(4-fluorophenethyl)piperidin-4-yl]-6-isobutyrylaminomethylindoline] |
| 5.58 | 0.76 | O=C(NCc1ccc2c(c1)N(C1CCN(CCc3ccc(F)cc3)CC1)CC2)C1CC1 [Example 159, 1-[1-(4-fluorophenethyl)piperidin-4-yl]-6-cyclopropanecarboxamindomethylindoline] |
| 3.23 | 0.43 | NC(=O)NCc1ccc2c(c1)N(C1CCN(CCc3ccc(F)cc3)CC1)CC2 [Example 161, 1-[1-(4-fluorophenethyl)piperidin-4-yl]-6-ureidomethylindoline] |
| 2.41 | 7.75 | CC(=O)N(C)Cc1ccc2c(c1)N(C1CCN(CCc3ccc(F)cc3)CC1)CC2 [Example 163, 1-[1-(4-fluorophenethyl)piperidin-4-yl]-6-N-methylacetamidomethylindoline] |
| 5.5 | 1.22 | CC(=O)NC(C)c1ccc2c(c1)N(C1CCN(CCc3ccc(F)cc3)CC1)CC2 (centres unmarked) [Example 165, 1-[1-(4-fluorophenethyl)piperidin-4-yl]-6-(1-acetamidoethyl)indoline] |
| 6.49 | 18.4 | Fc1ccc(CCN2CCC(N3CCc4ccc(CC5CCNCC5)cc43)CC2)cc1 [Example 167, 1-[1-(4-fluorophenethyl)piperidin-4-yl]-6-[(piperidin-4-yl)methyl]indoline] |
| 16.4 | 13.8 | CCN1CCC(Cc2ccc3c(c2)N(C2CCN(CCc4ccc(F)cc4)CC2)CC3)CC1 [Example 169, 1-[1-(4-fluorophenethyl)piperidin-4-yl]-6-[(1-ethylpiperidin-4-yl)methyl]indoline] |
| 47.5 | 16.3 | CN1CCC(Cc2ccc3c(c2)N(C2CCN(CCc4ccc(F)cc4)CC2)CC3)CC1 [Example 170, 1-[1-(4-fluorophenethyl)piperidin-4-yl]-6-[(1-methylpiperidin-4-yl)methyl]indoline] |
| 0.12 | 52.4 | Fc1ccc(CCN2CCC(N3CCc4ccc(-c5nccs5)cc43)CC2)cc1 [Example 172, 1-[1-(4-fluorophenethyl)piperidin-4-yl]-6-(2-thiazolyl)indoline] |

| SMILES | Ki (serotonin 1A receptor) [nM] | Ki (serotonin 2 receptor) [nM] |
| --- | --- | --- |
| O=C(c1ccc2c(c1)N(C1CCN(CCc3ccc(F)cc3)CC1)CC2)n1cccc1 [Example 126, 1-[1-(4-fluorophenethyl)piperidin-4-yl]-6-(1-pyrrolylcarbonyl)indoline] | 1.23 | 129 |
| OC1(c2ccc3c(c2)N(C2CCN(CCc4ccc(F)cc4)CC2)CC3)CCCC1 [Example 141, 1-[1-(4-fluorophenethyl)piperidin-4-yl]-6-(1-hydroxycyclopentyl)indoline] | 3.03 | 343 |
| O=C(O)Cc1ccc2c(c1)N(C1CCN(CCc3ccc(F)cc3)CC1)CC2 [Example 146, 1-[1-(4-fluorophenethyl)piperidin-4-yl]-6-carboxymethylindoline] | 164 | > 200 |
| CS(=O)(=O)NCc1ccc2c(c1)N(C1CCN(CCc3ccc(F)cc3)CC1)CC2 [Example 160, 1-[1-(4-fluorophenethyl)piperidin-4-yl]-6-methylsulfonylaminomethylindoline] | 3.86 | 8 |
| Fc1ccc(CCN2CCC(N3CCc4ccc(-c5ccccn5)cc43)CC2)cc1 [Example 171, 1-[1-(4-fluorophenethyl)piperidin-4-yl]-6-(2-pyridyl)indoline] | 0.39 | 178 |
